How the values were obtained:
Assay in all cases: KINOMEscan (scanMAX) competition binding at […], less than […] of control
Conditions in all cases: read-out: % of control at 100 nM
DYRK1A = DYRK1A (Homo sapiens, UniProt Q13627)
CLK2 = CLK2 (Homo sapiens, UniProt P49760)
MEK5 = target: T1, MEK5 (Homo sapiens, UniProt Q13163)
T1 construct: gene MAP2K5
T1 sequence (Q13163 1-448): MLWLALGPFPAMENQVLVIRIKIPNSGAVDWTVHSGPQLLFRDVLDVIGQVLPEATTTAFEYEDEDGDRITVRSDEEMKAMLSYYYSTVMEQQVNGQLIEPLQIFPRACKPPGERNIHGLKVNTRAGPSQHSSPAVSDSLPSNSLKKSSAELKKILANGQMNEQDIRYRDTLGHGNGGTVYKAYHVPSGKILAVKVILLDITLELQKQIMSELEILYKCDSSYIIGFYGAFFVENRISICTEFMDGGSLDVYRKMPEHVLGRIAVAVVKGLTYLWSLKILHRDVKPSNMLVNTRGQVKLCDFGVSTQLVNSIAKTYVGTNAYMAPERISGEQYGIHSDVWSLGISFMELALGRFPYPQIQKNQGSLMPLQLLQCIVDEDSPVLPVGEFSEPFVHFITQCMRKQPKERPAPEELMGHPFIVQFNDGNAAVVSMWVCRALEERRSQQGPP

Measured: remaining binding at 0.1 µM

Chain of CLK2 (P49760 whole entry): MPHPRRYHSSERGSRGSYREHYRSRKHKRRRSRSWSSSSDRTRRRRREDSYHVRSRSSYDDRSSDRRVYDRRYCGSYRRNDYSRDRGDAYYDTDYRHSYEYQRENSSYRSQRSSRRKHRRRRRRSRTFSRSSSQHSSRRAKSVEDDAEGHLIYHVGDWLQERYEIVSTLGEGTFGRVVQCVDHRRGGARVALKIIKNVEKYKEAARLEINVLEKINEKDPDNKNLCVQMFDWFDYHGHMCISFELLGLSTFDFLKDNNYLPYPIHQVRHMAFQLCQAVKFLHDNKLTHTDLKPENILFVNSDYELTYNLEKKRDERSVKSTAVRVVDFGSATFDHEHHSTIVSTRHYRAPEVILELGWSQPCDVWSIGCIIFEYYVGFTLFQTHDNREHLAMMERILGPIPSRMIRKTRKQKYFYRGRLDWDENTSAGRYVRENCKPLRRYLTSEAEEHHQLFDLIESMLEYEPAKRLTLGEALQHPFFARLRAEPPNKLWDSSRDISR

C#Cc1cn([C@@H]2S[C@H](CN=[N+]=[N-])[C@@H](O)[C@H]2O)c2ncnc(N)c12 [compound 7, LJ4827]
< 1%: all assays above
